Results reported in US9631041B2, “PH-sensitive compositions for delivery of beta lapachone and methods of use” (The Board of Regents of the University of Texas System, priority 2010, dated 2017).
In brackets after ≈: the same amount, converted by molar mass. Like-named read-outs stand apart in the source and are kept apart here. One block for each molecule: values may come before it.

Key:
[1] = Prodrug hydrolysis / conversion into β-lap by HPLC at different pH; assay type: physicochemical; conditions: for pH sensitivity of hydrolysis: hydrolysis study at neutral pH and acidic pH; for half-life at 5 μmol/mL: acetonitrile/buffered solution (30:70, v/v)
Protocol: The HPLC system consisted of a quaternary pump, a vacuum degasser, an autosampler, a C18 column (4.6 mm×250 mm, Agilent, CA) and UV detector at 254 nm (Perkin Elmer, MA, USA). The mobile phase was acetonitrile/water (60:40) and a flow rate of 1.0 mL/min was used.

A549 cells = experiment: Cytotoxicity assay, long-term relative survival by DNA content; assay type: cell-based, human
Protocol: Long-term, relative survival was assessed based on DNA content as described (Pink, J. J., Planchon, S. M., Tagliarino, C., Varnes, M. E., Siegel, D., and Boothman, D. A. (2000) NAD(P)H:Quinone oxidoreductase activity is the principal determinant of beta-lapachone cytotoxicity. J. Biol. Chem. 275, 5416-24). Briefly, A549 cells were seeded at 5×10^3/well in 48-well dishes a day before experiments. Cells were then mock-treated or exposed to various doses of β-lap or β-lap prodrug (6) conjugated micelles for preferred time in the presence or absence of dicoumoral (40 μM) as indicated. Subsequently, cells were replenished with drug-free medium and allowed to grow for 5-7 days until control cells reached ˜100% confluence. DNA content was determined by Hoechst 33258 staining and fluorescence detection using a plate reader (Perkin-Elmer, Boston, Mass.). Results were graphed as means±SE from sixtuplicate. Independent experiments were repeated at least three times. DIC is a specific NQO1 inhibitor and used to block β-Lap induced cytotoxicity.

[2] = free drug; cited from earlier work
NQO1 = NQO1 (Homo sapiens, UniProt P15559); conditions: upon NQO1 bioactivation, futile cycle; cited from earlier work
[3] = inclusion complex with hydroxylpropyl β-cyclodextrin; cited from earlier work

Chain of NQO1 (P15559 whole entry): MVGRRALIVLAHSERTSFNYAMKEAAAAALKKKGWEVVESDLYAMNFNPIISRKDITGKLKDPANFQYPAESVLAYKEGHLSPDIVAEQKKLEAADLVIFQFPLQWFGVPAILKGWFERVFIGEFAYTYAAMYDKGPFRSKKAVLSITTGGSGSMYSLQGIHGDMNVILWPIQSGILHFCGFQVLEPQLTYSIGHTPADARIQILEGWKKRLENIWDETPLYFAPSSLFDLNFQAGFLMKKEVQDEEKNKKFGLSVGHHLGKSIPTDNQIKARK

pH sensitivity of hydrolysis [1]: resisted acid catalyzed hydrolysis
SMILES: CC1(C)CCc2c(c3ccccc3c3nc(CCCCO)oc23)O1 [(4), 4-(6,6-dimethyl-5,6-dihydro-4H-benzo[7,8]chromeno[6,5-d]oxazol-2-yl)butan-1-ol]

pH sensitivity of hydrolysis [1]: resisted acid catalyzed hydrolysis
SMILES: Cc1cc2nc3c(oc-2cc1=O)c1c(c2ccccc23)OC(C)(C)CC1 [(5), 3,3,11-trimethyl-2,3-dihydrobenzo[a]pyrano[2,3-c]phenoxazin-12(1H)-one]

SMILES: Nc1ccc(N2C(=O)C=CC2=O)cc1 [linker, N-(4-Aminophenyl)maleimide]
toxicity (A549 cells; A549, treatment up to 24 h): No toxicity

SMILES: CC(=O)N/N=C1\C(=O)C2=C(OC(C)(C)CC2)c2ccccc21 [prodrug (1), (Z)—N′-(2,2-dimethyl-5-oxo-3,4-dihydro-2H-benzo[h]chromen-6(5H)-ylidene)acetohydrazide]
pH sensitivity of hydrolysis [1]: not pH-sensitive

pH sensitivity of hydrolysis [1]: not pH-sensitive
SMILES: CC1(C)CCC2=C(O1)c1ccccc1[C@]1(OC[C@@](C)(CO)CO1)C2=O [prodrug (2), (2′r,5′r)-5′-(hydroxymethyl)-2,2,5′-trimethyl-3,4-dihydrospiro[benzo[h]chromene-6,2′-[1,3]dioxan]-5(2H)-one]

pH sensitivity of hydrolysis [1]: not pH-sensitive
SMILES: CC1(C)CCC2=C(O1)c1ccccc1[C@]1(OC[C@](C)(CO)CO1)C2=O [prodrug (3), (2′s,5′s)-5′-(hydroxymethyl)-2,2,5′-trimethyl-3,4-dihydrospiro[benzo[h]chromene-6,2′-[1,3]dioxan]-5(2H)-one]

SMILES: CC1(C)CCC2=C(O1)c1ccccc1/C(=N\c1ccc(N3C(=O)C=CC3=O)cc1)C2=O [prodrug (6), (E)-1-(4-(2,2-dimethyl-5-oxo-3,4-dihydro-2H-benzo[h]chromen-6(5H)-ylideneamino)phenyl)-1H-pyrrole-2,5-dione]
half-life at 5 μmol/mL ([1]; pH 5, pH 5.0, room temperature, read-out: half-life of conversion into β-lap, t1/2 (pH 5.0) (converted)): 1.1 h
half-life at 5 μmol/mL ([1]; pH 7.4, pH 7.4, read-out: half-life for hydrolysis, t1/2 (pH 7.4)): > 90 h
pH sensitivity of hydrolysis [1]: inspiring pH sensitivity both at neutral and at acidic conditions
prodrug converted into β-Lap ([1]; pH 5.0, after 1.5 hr): more than 50%
prodrug hydrolyzed ([1]; pH 5.0, after 10 hrs): all prodrug (6) was hydrolyzed
β-Lap released from prodrug ([1]; pH 5.0 buffer, 5 mins): only a trace
prodrug converted into β-Lap ([1]; pH 6.5, after 24 hrs): about 30%
prodrug converted into β-Lap ([1]; pH 7.4, after 24 hrs): ~3.3%

SMILES: CC1(C)CCC2=C(O1)c1ccccc1C(=O)C2=O [β-lap, β-Lapachone]
aqueous solubility [2]: 38 µg/mL (≈ 157 µM)
moles of H2O2 and other ROS produced per mole of β-lap (NQO1): 120 mol
cytotoxicity in the presence of dicoumarol (NQO1 inhibitor) (A549 cells; A549, dicoumarol 40 μM): blocked
concentration sufficient to reach maximal cytotoxicity (A549 cells; A549 cells, within 2 hours): 5 µM
binding constant [3]: 1100 M⁻¹
